Patent publication US20090156501A1, “IDENTIFICATION OF LIGANDS BY SELECTIVE AMPLIFICATION OF CELLS TRANSFECTED WITH RECEPTORS” (ACADIA PHARMACEUTICALS, INC., priority 1999, published 2009)
Like-named read-outs stand apart in the source and are kept apart here.

Assays:
Assay type in all cases: cell-based
[1] = target: T1, trk A receptor (Homo sapiens, UniProt P04629); test: Single Receptor Format amplification assay, trk A; conditions: 7-9 doses in duplicate
T1 construct: expressed in transfected cells; host or cells: NIH 3T3

[2] = target: T2, trk C receptor (Homo sapiens, UniProt Q16288); test: Single Receptor Format amplification assay, trk C
T2 construct: expressed in transfected cells; host or cells: NIH 3T3
Source text: Also illustrated is the dose-response relationships of the related neutrotrophic factor NT3.
(§1) Receptors belonging to several functional categories have successfully been assayed using the general protocol for the Single Receptor Format described above. […] A diversity of signal transduction classes are also illustrated: G-protein coupled receptors, tyrosine kinase linked receptors, G-proteins and oncogenes. In a few of these cases, focus assays have been used to assay ligand interaction with the illustrated receptors.

[3] = target: T3, m5 muscarinic receptor (Homo sapiens, UniProt P08912); test: Single Receptor Format amplification assay, β-galactosidase marker, NIH 3T3 cells transfected with m5; conditions: for Muscarinic Agonists (% Max), m5: maximum response as % of carbachol response (carbachol 5 μM)
T3 construct: expressed in transfected cells; host or cells: NIH 3T3
T3 sequence (P08912 1-532): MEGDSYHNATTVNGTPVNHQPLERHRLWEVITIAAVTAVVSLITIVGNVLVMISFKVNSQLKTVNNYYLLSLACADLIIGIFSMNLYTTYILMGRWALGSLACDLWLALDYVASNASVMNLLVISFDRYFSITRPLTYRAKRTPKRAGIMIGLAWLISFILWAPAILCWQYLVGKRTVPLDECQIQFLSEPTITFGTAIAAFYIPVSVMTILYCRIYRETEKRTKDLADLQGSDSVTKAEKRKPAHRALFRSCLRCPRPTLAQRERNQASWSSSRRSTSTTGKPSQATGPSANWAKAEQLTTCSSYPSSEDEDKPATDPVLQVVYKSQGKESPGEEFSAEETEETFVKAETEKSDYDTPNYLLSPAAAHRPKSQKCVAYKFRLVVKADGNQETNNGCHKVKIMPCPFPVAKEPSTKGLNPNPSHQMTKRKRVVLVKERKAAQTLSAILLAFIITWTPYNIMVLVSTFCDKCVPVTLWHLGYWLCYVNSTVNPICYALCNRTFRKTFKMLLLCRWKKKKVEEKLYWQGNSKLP

[4] = target: T4, m1 muscarinic receptor (Homo sapiens, UniProt P11229); test: Single Receptor Format amplification assay, β-galactosidase marker, NIH 3T3 cells transfected with m1
T4 construct: expressed in transfected cells; host or cells: NIH 3T3
T4 sequence (P11229 1-460): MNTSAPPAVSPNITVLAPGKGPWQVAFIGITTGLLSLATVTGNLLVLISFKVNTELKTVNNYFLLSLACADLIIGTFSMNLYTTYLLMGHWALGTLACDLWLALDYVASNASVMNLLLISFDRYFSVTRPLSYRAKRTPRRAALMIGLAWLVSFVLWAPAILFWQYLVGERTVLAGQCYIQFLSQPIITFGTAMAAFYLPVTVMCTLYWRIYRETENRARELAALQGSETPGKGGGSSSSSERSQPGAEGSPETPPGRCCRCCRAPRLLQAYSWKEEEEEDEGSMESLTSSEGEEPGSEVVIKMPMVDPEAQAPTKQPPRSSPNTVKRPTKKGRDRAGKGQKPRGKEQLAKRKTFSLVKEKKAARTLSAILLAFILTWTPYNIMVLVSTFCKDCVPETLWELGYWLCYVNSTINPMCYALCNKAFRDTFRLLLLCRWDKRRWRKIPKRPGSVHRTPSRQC

[5] = target: T5, m2 muscarinic receptor (Homo sapiens, UniProt P08172); test: Single Receptor Format amplification assay, β-galactosidase marker, NIH 3T3 cells transfected with m2 and Gq-i5
T5 construct: expressed in transfected cells; host or cells: NIH 3T3
T5 sequence (P08172 1-466): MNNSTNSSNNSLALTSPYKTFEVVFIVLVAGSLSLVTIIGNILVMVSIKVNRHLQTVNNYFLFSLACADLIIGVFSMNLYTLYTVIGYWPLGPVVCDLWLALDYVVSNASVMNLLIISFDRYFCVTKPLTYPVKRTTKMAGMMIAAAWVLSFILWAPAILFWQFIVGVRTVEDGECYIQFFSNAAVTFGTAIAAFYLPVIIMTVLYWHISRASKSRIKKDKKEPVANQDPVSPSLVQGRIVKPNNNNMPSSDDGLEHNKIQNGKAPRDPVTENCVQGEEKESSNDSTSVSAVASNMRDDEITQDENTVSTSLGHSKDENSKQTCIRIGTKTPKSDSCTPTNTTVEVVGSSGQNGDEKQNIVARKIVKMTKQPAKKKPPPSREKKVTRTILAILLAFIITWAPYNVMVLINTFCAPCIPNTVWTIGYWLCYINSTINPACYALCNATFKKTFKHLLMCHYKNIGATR

[6] = target: T6, m3 muscarinic receptor (Homo sapiens, UniProt P20309); test: Single Receptor Format amplification assay, β-galactosidase marker, NIH 3T3 cells transfected with m3; conditions: for EC50: β-gal amplification, mean ±SE of 2-4 experiments, read-out: Muscarinic Agonists EC50 [μM], m3
T6 construct: expressed in transfected cells; host or cells: NIH 3T3

[7] = target: T7, m4 muscarinic receptor (Homo sapiens, UniProt P08173); test: Single Receptor Format amplification assay, β-galactosidase marker, NIH 3T3 cells transfected with m4 and chimeric G-protein; conditions: for EC50: cotransfected with Gqi5, mean ±SE of 2-4 experiments, read-out: Muscarinic Agonists EC50 [μM], m4
T7 construct: expressed in transfected cells; host or cells: NIH 3T3
T7 sequence (P08173 1-479): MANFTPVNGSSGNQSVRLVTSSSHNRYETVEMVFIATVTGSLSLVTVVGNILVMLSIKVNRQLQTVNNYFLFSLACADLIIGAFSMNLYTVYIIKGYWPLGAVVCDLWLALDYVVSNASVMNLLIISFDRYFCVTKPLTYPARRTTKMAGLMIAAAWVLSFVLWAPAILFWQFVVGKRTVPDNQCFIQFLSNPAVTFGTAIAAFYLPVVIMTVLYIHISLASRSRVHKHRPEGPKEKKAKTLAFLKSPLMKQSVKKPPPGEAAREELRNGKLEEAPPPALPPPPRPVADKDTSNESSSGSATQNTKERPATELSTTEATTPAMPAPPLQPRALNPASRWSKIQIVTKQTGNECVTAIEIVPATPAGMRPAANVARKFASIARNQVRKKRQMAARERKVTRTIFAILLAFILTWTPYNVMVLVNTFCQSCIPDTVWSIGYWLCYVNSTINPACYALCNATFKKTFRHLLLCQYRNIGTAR

[8] = target: T8, FP prostanoid receptor (Homo sapiens, UniProt P43088); test: Single Receptor Format amplification assay, prostanoid FP; conditions: 7-9 doses in duplicate; read-out: Ligand EC50 nM, FP
T8 construct: expressed in transfected cells; host or cells: NIH 3T3
Source text: as §1

[9] = target: T9, EP3 prostanoid receptor (Homo sapiens, UniProt P43115); test: Single Receptor Format amplification assay, prostanoid EP3; conditions: 7-9 doses in duplicate; read-out: Ligand EC50 nM, EP3
T9 construct: expressed in transfected cells; host or cells: NIH 3T3
T9 sequence (P43115 1-390): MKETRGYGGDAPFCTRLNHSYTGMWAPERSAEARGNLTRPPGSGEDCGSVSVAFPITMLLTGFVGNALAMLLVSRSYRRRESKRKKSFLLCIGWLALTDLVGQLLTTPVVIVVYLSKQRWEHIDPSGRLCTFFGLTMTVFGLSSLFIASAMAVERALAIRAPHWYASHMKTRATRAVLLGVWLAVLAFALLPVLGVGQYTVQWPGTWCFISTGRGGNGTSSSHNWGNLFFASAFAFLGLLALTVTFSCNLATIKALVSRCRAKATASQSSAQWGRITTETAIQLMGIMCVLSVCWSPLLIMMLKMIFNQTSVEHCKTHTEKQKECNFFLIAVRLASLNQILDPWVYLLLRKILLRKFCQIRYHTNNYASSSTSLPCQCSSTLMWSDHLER
Source text: as §1

[10] = maximum response as % of carbachol response (carbachol 10 μM), Gqi5

T6 sequence (P20309 whole entry): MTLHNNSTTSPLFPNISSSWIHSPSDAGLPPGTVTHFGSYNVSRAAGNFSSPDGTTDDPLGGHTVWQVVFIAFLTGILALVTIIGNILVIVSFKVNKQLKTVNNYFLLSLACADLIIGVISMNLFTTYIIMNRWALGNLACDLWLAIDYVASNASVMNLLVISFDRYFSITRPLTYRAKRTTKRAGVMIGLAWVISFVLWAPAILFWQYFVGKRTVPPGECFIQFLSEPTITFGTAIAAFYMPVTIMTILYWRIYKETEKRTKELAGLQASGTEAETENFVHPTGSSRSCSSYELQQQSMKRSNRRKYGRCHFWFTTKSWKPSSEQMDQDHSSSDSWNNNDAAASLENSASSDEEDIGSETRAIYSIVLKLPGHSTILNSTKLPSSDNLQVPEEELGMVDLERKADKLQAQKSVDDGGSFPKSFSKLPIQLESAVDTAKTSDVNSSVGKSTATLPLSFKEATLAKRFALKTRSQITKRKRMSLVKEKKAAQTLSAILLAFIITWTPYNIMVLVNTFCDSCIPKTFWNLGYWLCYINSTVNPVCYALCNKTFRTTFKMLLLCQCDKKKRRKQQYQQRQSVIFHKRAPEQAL
T8 sequence (P43088 whole entry): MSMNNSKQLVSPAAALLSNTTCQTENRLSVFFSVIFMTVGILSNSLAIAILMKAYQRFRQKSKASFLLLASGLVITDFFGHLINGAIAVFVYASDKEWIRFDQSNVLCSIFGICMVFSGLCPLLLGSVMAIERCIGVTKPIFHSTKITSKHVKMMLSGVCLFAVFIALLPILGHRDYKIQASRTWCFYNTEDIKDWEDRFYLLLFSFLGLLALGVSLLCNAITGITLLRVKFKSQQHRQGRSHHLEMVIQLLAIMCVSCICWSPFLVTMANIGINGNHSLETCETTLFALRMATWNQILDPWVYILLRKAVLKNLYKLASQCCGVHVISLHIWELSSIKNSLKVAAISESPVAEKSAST
T1 sequence (P04629 33-790 isoform P04629-2 limits assumed): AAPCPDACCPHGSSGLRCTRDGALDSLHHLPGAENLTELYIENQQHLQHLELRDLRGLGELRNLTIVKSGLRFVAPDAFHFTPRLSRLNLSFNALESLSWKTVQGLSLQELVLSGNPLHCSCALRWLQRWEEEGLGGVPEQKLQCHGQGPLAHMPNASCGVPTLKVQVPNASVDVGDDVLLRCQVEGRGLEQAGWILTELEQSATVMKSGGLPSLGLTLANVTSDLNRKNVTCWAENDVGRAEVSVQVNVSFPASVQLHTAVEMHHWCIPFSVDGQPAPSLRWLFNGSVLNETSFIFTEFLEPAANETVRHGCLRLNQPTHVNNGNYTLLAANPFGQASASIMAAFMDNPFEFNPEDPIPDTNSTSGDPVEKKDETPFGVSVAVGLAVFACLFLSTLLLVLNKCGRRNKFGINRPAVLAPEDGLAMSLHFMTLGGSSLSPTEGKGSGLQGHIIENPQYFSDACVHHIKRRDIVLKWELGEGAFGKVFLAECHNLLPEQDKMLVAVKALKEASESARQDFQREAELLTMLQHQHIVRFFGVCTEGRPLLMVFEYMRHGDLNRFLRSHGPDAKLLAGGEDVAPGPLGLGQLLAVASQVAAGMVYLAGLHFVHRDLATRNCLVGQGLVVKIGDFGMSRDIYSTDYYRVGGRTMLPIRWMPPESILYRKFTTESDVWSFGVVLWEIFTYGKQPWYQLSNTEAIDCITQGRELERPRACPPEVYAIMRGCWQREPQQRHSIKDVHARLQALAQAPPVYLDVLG

In the case of NT3: related neutrotrophic factor NT3, the “Ligand EC50, trk A” value [1] is reported as >1 µg/mL and the “Ligand EC50, trk C” value ([2]; 7-9 doses in duplicate) is reported as 0.0024 ± 0.0011 µg/mL.

In the case of C[N+](C)(C)CC#CCOC(=O)Nc1cccc(Cl)c1.[Cl-] [McN A-434], the “Muscarinic Agonists (% Max), m5” value [3] is reported as “(57 ± 4) %”, the EC50 ([3]; β-gal amplification, mean ±SE of 2-4 experiments, read-out: Muscarinic Agonists EC50 [μM], m5) is reported as 1 ± 0.3 µM and the “Muscarinic Agonists (% Max), m1” value ([4]; maximum response as % of carbachol response (carbachol 200 μM)) is reported as “(43 ± 2) %”. The EC50 ([4]; β-gal amplification, mean ±SE of 2-4 experiments, read-out: Muscarinic Agonists EC50 [μM], m1) was 1.1 ± 0.2 µM, the EC50 ([5]; cotransfected with Gqi5, mean ±SE of 2-4 experiments, read-out: Muscarinic Agonists EC50 [μM], m2) was 1.5 ± 0.6 µM and the “Muscarinic Agonists (% Max), m2” value [5, 10] was “(108 ± 7) %”. The “Muscarinic Agonists (% Max), m3” value ([6]; maximum response as % of carbachol response (carbachol 100 μM)) was “(38 ± 2) %”, the EC50 [6] was 2.2 µM and the EC50 [7] was 0.12 ± 0.02 µM. The “Muscarinic Agonists (% Max), m4” value [7, 10] was “(84 ± 3) %”.

In the case of C[N+](C)(C)CCOC(N)=O [carbachol], the “Muscarinic Agonists (% Max), m5” value [3] is reported as “(100) %”, the “Muscarinic Agonists (% Max), m2” value [5, 10] is reported as “(100) %” and the “Muscarinic Agonists (% Max), m4” value [7, 10] is reported as “(100) %”.

With C[C@@H]1O[C@H](C[N+](C)(C)C)C[C@H]1O [muscarine] the EC50 [3] was 0.39 ± 0.18 µM, the “Muscarinic Agonists (% Max), m5” value [3] was “(86 ± 0) %” and the “Muscarinic Agonists (% Max), m1” value [4] was “(84 ± 4) %”. For the same molecule, the “Muscarinic Agonists (% Max), m2” value [5] was “(76 ± 1) %”, the “Muscarinic Agonists (% Max), m3” value [6] was “(84 ± 6) %” and the EC50 [6] was 0.56 ± 0.25 µM. For the same molecule, the “Muscarinic Agonists (% Max), m4” value [7] was “(69 ± 2) %” and the EC50 [7] was 0.32 ± 0.15 µM.

O=C1CCCN1CC#CCN1CCCC1 [oxotremorine] was tested, and the “Muscarinic Agonists (% Max), m5” value [3] was “(74 ± 2) %”, the “Muscarinic Agonists (% Max), m1” value [4] was “(75 ± 10) %” and the “Muscarinic Agonists (% Max), m2” value [5] was “(100 ± 5) %”. For the same molecule, the “Muscarinic Agonists (% Max), m3” value [6] was “(66 ± 5) %” and the “Muscarinic Agonists (% Max), m4” value [7] was “(102 ± 3) %”.

In the case of O=C(O)CCC/C=C\C[C@@H]1[C@@H](/C=C/[C@@H](O)COc2cccc(C(F)(F)F)c2)[C@H](O)C[C@@H]1O (racemic) [Fluprostenol], the EC50 [8] is reported as 2 ± 1 nM.

For O=C(O)CCCCCC[C@H]1C(=O)CC[C@@H]1/C=C/[C@@H](O)COc1ccccc1 [MB28767], the EC50 [9] was 270 ± 190 nM.

For “NGF: Nerve growth factor (NGF) is an agonist for the trk A receptor”, the “amplification response in cells transfected with trk C” value ([2]; data not shown) was “not able to induce amplification responses”.
